This is an account of results in patent US7544476B1, “Identifying cancers sensitive to treatment with inhibitors of notch signaling” (AVEO Pharmaceuticals, Inc., priority 2008, dated 2009).

For test [1], the system named is HT-29 colon cancer cell line. Briefly: Notch target gene expression by qRT-PCR after treatment with gamma-secretase inhibitor. The test is classed as cell-based, human. Here is the method: (§1) Cells were seeded into 6-well plates in 2 mL of media. Replicates wells of cells treated with 1 μM, 3 μM, and 6 μM Gamma Secretase Inhibitor (GSI; Sigma L-685,458) or DMSO (Sigma D2650) (vehicle control) immediately after seeding. Cells were incubated at 37° C. 5% CO2 for 20 hours after treatment, then collected, rinsed with PBS (Invitrogen 14040-133), and cell pellets were frozen on dry ice and stored at −80° C. Subsequently, RNA was prepared by hand using the Qiagen RNeasy™ miniprep columns (Qiagen GR8RNA) and qRT-PCR performed to analyze Notch target gene expression according to standard protocol (Qiagen Quantitect SYBR GREEN RT-PCR kit 204245). Quantitative RT-PCR was run on Applied Biosystems 7900HT Sequence Detection System. Results were analyzed using the comparative Ct method. Beta Actin was used as the housekeeping gene and Stratagene Universal Human Reference RNA (Stratagene Cat. No. 740000) was used as an external reference sample to determine the level of expression of the Notch target genes Hes1, Hes5, Hes6, Hes7, Hey1, Hey2, HeyL, and Helt.

The test system of test [2] is LS-1034 colon cancer cell line. Described as above. The format is cell-based, human. Here is the method:
as §1

For test [3], the system named is mouse tumors with enhanced expression of Notch1 caused by Mo-MuLV integration near the Notch1 locus. Kind of test: Cell viability assay on disaggregated retroviral-induced tumors treated with GSI. The format is cell-based. Here is the method: To perform the analyses on the retroviral-induced tumors, tumor-bearing animals were euthanized, tumors were collected and 0.2 g pieces were disaggregated using 4 mg/ml collagenase in RPMI media for 2 hours at 37° C. Cells were further disaggregated by passage through an 18 G needle 5-10 times. Single cells in suspension were aspirated in the supernatant for further analysis.
(§2) For cell viability assays, single cells were re-seeded at 100,000 cell per well in 12-well plates in RPMI media supplemented with 10% FBS, 1% PenStrep, and 0.01 μM Beta estradiol. Cells were then treated for 48 hours with 1, 3 or 10 μM GSI (Sigma L-685,458) or vehicle control. Cell viability and apoptosis were assessed using Guava PCA-96 Viacount Flex reagent (Cat. No. 4700-0060) and measured using a Guava PCA-96 instrument, according to manufacturer's protocol. To measure mRNA expression levels, fresh tumor samples were collected, RNA was prepared using standard protocols, and microarray gene expression profile analysis was performed using Agilent cDNA microarray chips according to manufacturer's recommended protocols. Relative expression of HeyL and other genes was calculated by comparison to a universal mouse reference RNA sample from Stratagene (Universal Mouse Reference RNA Cat. No. 740100). […]

In test [4] the test system is mouse tumors that did not exhibit elevated Notch1 expression. Described as above. The format is cell-based. The following applies: mouse tumors without elevated Notch1 expression. Here is the method:
as §2, with “To perform the analyses on the retroviral-induced tumors, tumor-bearing animals were euthanized, tumors were collected and 0.2 g pieces were disaggregated using 4 mg/ml collagenase in RPMI media for 2 hours at 37° C. Cells were further disaggregated by passage through an 18 G needle 5-10 times. Single cells in suspension were aspirated in the supernatant for further analysis. For” for “For”

In the case of `CC(C)C[C@H](NC(=O)[C@H](Cc1ccccc1)C[C@@H](O)[C@H](Cc1ccccc1)NC(=O)OC(C)(C)C)C(=O)N[C@@H](Cc1ccccc1)C(N)=O` [GSI], the “expression of Notch target genes” value in test [1] and in test [2] was “decreases expression of Notch target genes” each time. The entries for the “sensitivity of tumor growth to inhibition by GSI” value in test [3] and in test [4] were “sensitivity to inhibition” and “not sensitive”, respectively.
